From US20170198292A1, “Methods and Compositions for Modulating Lung Cancer Tumor Initiating Cells (TIC), and Oxytocin Receptor (OXTR) Modulatory Agents for Use in Practicing the Same” (The Board of Trustees of the Leland Stanford Junior …, priority 2014, published 2017)

Legend:
Assay type in all cases: cell-based, human
[1] = test system: tumor spheres of H226 and H520 cells; experiment: Sphere-forming assay (tumor spheres / TIC growth)
Experimental: All gene expression and survival data were obtained from publicly-available resources: NCI TCGA and NCBI GEO. Human lung cancer tissue samples were purchased from US Biomax. Cell imaging was acquired using a confocal laser scanning microscope at the Stanford Fluorescence Microscopy Core. FACS was done at the Stanford FACS core facility. All sphere-forming assays and mouse xenograft model were performed at the Stanford Transgenic, Knockout and Tumor Model Center. qRT-PCR and sequencing was performed at Stanford Protein and Nucleic Acid Facility. • A. Text mining of lung TIC associated literature. PubMed literatures were queried on Apr. 13, 2015, using the search term, (“Neoplastic Stem Cells”[majr] OR “tumor-propagating cells”[All Fields]) AND “lung cancer”[All Fields]. […] Words with a prefix “CD” followed by digits were extracted from the title and abstract of each article. Resulted terms were manually examined. Immune cell CD markers were excluded from the list. CD marker with positive sign, such as CD133+, was treated as different from CD133 or CD133−. The number of unique occurrence of each term is counted in titles and abstracts. Terms occurred in at least two different articles were selected for ranking by its occurrence frequency. • B. Primary Tumor Cell Preparation. SQCC samples were collected from patients according to protocols approved by the Stanford IRB board. Samples were washed, dissociated, and incubated in DNase and collagenase/dispase. After incubation, cell clusters and red blood cells were removed. The single cells were resuspended and prepared for cell culture and staining. • C. Microarray datasets. The TOGA lung cancer gene expression datasets were downloaded from the TOGA data portal on September 2012. No significant changes in available sample size were found during a recent check. These datasets were selected based on two criteria: explicit pathological diagnosis of SQCC and associated with an actual publication. Pearson or Spearman correlation analysis was used for the association study, depending on whether the distribution of the gene expression data is parametric or non-parametric. Multiple hypothesis testing was corrected using false discovery rates to select associations with a q value less than 0.1. Meta-analysis of correlations were performed using R package meta, where fixed and random effects estimates were calculated and inverse variance weighting was used for pooling. Survival data was extracted from all the datasets whenever they were available. Proportional hazards regression analysis was performed with the gene expression of OXTR and CD133 as covariates. Proportional hazard hypothesis was test based on weighted residuals. • D. Cell Culture and Imaging. H226, H520, HCC827, H522 and NL20 cell lines were purchased from ATCC and cultured in recommended cell medium for bulk cancer cell growth. HCC95 and H157 were from Dr. Sage's laboratory. APC conjugated mouse anti-CD133 Ab (BioLegend 14208), goat anti-OXTR Ab (Life Technologies ab87312) with anti-goat Alexa488 (Life Technologies A11055), rabbit anti-CD44 (Santa Cruz Biotech sc-7946) with anti-rabbit Alexa594 (Life Technologies A21207) and rabbit anti-OXT with anti-rabbit Alexa594 were used to stain CD133, OXTR, CD44 and OXT respectively in human tissue samples and cell lines for immunofluorescence (IF) imaging. Goat F(ab′)2 IgG (Life Technologies 11301C) and isotype control for rabbit primary Ab (Life Technology 08-6199) were used as isotype control of OXTR Ab and CD133 Ab. Quantitative IF imaging signal of human lung tissue samples were measured using the Bioquant image analysis software in the Nikon 8000 microscope and Leica DMI 6000B. • E. Flow Cytometry. Cells were stained with CD133, CD44 or OXTR Ab separately for single channel counting, and stained with CD133 and OXTR Ab for double channel counting and sorting. Cells were also stained for secondary Ab alone for subtraction of non-specific binding. […]

[2] = test system: H226 and H520 cells; experiment: Colony formation; conditions: statistically significant at 0.5 μM, 5 μM and 10 μM
Source text: To determine whether the expression of OXTR is associated with the growth of regular cancer cells and TICs, we treated regular cancer cells and tumor spheres of SQCC cell lines with an OXTR specific inhibitor (Manning et al.,“Oxytocin and vasopressin agonists and antagonists as research tools and potential therapeutics,” Journal of neuroendocrinology (2012) 24: 609-628), L-368,899 (L3) to suppress its activity, or its natural ligand oxytocin (OXT) to induce its activity.

[3] = test system: regular H226 and H520 cells; experiment: Proliferation of regular cancer cells; conditions: for cell proliferation of regular H226 and H520 cells: 3-day treatment
Experimental: All gene expression and survival data were obtained from publicly-available resources: NCI TCGA and NCBI GEO. Human lung cancer tissue samples were purchased from US Biomax. Cell imaging was acquired using a confocal laser scanning microscope at the Stanford Fluorescence Microscopy Core. FACS was done at the Stanford FACS core facility. All sphere-forming assays and mouse xenograft model were performed at the Stanford Transgenic, Knockout and Tumor Model Center. qRT-PCR and sequencing was performed at Stanford Protein and Nucleic Acid Facility. • A. Text mining of lung TIC associated literature. PubMed literatures were queried on Apr. 13, 2015, using the search term, (“Neoplastic Stem Cells”[majr] OR “tumor-propagating cells”[All Fields]) AND “lung cancer”[All Fields]. […] Words with a prefix “CD” followed by digits were extracted from the title and abstract of each article. Resulted terms were manually examined. Immune cell CD markers were excluded from the list. CD marker with positive sign, such as CD133+, was treated as different from CD133 or CD133−. The number of unique occurrence of each term is counted in titles and abstracts. Terms occurred in at least two different articles were selected for ranking by its occurrence frequency. • B. Primary Tumor Cell Preparation. SQCC samples were collected from patients according to protocols approved by the Stanford IRB board. Samples were washed, dissociated, and incubated in DNase and collagenase/dispase. After incubation, cell clusters and red blood cells were removed. The single cells were resuspended and prepared for cell culture and staining. • C. Microarray datasets. The TOGA lung cancer gene expression datasets were downloaded from the TOGA data portal on September 2012. […] Meta-analysis of correlations were performed using R package meta, where fixed and random effects estimates were calculated and inverse variance weighting was used for pooling. […] Quantitative IF imaging signal of human lung tissue samples were measured using the Bioquant image analysis software in the Nikon 8000 microscope and Leica DMI 6000B. • E. Flow Cytometry. […]

[4] = test system: tumor spheres derived from primary SQCC cells; experiment: Sphere-forming assay, primary SQCC cells; conditions: at 5 μM; three days
Experimental: All gene expression and survival data were obtained from publicly-available resources: NCI TCGA and NCBI GEO. Human lung cancer tissue samples were purchased from US Biomax. Cell imaging was acquired using a confocal laser scanning microscope at the Stanford Fluorescence Microscopy Core. FACS was done at the Stanford FACS core facility. All sphere-forming assays and mouse xenograft model were performed at the Stanford Transgenic, Knockout and Tumor Model Center. qRT-PCR and sequencing was performed at Stanford Protein and Nucleic Acid Facility. • A. Text mining of lung TIC associated literature. PubMed literatures were queried on Apr. 13, 2015, using the search term, (“Neoplastic Stem Cells”[majr] OR “tumor-propagating cells”[All Fields]) AND “lung cancer”[All Fields]. […] Words with a prefix “CD” followed by digits were extracted from the title and abstract of each article. Resulted terms were manually examined. […] The number of unique occurrence of each term is counted in titles and abstracts. […] Meta-analysis of correlations were performed using R package meta, where fixed and random effects estimates were calculated and inverse variance weighting was used for pooling. […] Quantitative IF imaging signal of human lung tissue samples were measured using the Bioquant image analysis software in the Nikon 8000 microscope and Leica DMI 6000B. • E. Flow Cytometry. […]

[5] = test system: ERK1/2; experiment: ERK1/2 phosphorylation, western blot

| SMILES | tumor sphere numbers ([1]; H226 and H520 cells, after 3 days of treatment, statistically significant at 5 μM and 10 μM) | colony formation of H226 and H520 cells [2] | cell proliferation of regular H226 and H520 cells [3] | sphere growth of tumor spheres derived from primary SQCC cells [4] | phosphorylation of ERK1/2 in regular H226 and H520 cells ([5]; 100 nM for two days, compared to solvent control) | phosphorylation of ERK1/2 in TICs ([5]; 100 nM for two days, compared to solvent control, tumor spheres of H226 and H520) | tumor sphere size vs solvent control ([1]; H226 and H520 tumor spheres treated for three days) | tumor sphere growth ([1]; both cell lines (H226, H520), statistically significant at as low as 10 nM) | OXT induced phosphorylation of ERK1/2 ([5]; CCs and TICs of H226 and H520 cell lines, co-treatment with OXT) | rescue of the inhibitory effect by increasing dose of OXT ([1]; H226 and H520) | TIC growth ([1]; H226 and H520 spheres) | OXT induced increase of TIC growth ([1]; both H226 and H520 cells, co-treatment with OXT) | proliferation in regular cancer cells ([3]; H226 and H520 cells) |
| --- | --- | --- | --- | --- | --- | --- | --- | --- | --- | --- | --- | --- | --- |
| Cc1ccccc1N1CCN(S(=O)(=O)C[C@]23CC[C@H](C[C@@H]2NC(=O)[C@@H](N)CCS(C)(=O)=O)C3(C)C)CC1 [L3, (S)-2-amino-N-((1S,2S,4R)-7,7-dimethyl-1-((4-o-tolylpiperazin-1-lsulfonyl)methyl)bicyclo[2.2.1]heptan-2-yl)-4-(methylsulfonyl)butanamide] | dose-dependent decrease | reduced the colony formation | neither L3 nor OXT affected the cell proliferation | significantly reduced the sphere growth |  |  |  |  |  |  |  |  |  |
| CC[C@H](C)[C@@H]1NC(=O)[C@H](Cc2ccc(O)cc2)NC(=O)[C@@H](N)CSSC[C@@H](C(=O)N2CCC[C@H]2C(=O)N[C@@H](CC(C)C)C(=O)NCC(N)=O)NC(=O)[C@H](CC(N)=O)NC(=O)[C@H](CCC(N)=O)NC1=O [OXT, oxytocin] |  |  | neither L3 nor OXT affected the cell proliferation |  | unchanged | greatly increased | significantly larger | dose dependent increase |  |  |  |  |  |
| N#CC(=C(/N)Sc1ccccc1N)/C(C#N)=C(\N)Sc1ccccc1N [U0126] |  |  |  |  |  |  |  |  | inhibited | could not be rescued | dose dependent inhibition | blocked | increased proliferation |
